This note sets out measurements from patent US20250206724A1, “SUBSTITUTED 3-AMINO INDAZOLE DERIVATIVES AS KINASE INHIBITORS” (NERVIANO MEDICAL SCIENCES S.R.L., priority 2022, published 2025).

Counter-ions that a name gives are not always drawn.
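Note: compound preincubated 30 min with CDK11A-p58, then probe added and polarization (mP) read 15 min later, 0% displacement is probe plus enzyme, 100% is probe alone.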

The target in the experiment is T1, CDK11A (Homo sapiens, UniProt Q9UQ88).
T1 sequence (Q9UQ88 346-783): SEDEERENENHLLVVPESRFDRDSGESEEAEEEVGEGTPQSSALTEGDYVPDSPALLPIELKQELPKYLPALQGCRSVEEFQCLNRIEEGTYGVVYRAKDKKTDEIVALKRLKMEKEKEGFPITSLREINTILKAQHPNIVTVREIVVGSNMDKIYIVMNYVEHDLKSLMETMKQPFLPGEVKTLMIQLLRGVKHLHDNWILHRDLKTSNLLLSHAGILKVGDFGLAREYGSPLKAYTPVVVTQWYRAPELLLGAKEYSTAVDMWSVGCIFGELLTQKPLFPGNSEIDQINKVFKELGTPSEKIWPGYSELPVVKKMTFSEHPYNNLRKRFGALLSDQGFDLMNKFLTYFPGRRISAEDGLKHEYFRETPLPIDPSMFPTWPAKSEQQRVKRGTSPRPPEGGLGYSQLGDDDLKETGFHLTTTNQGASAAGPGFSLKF
The conditions noted are these: displacement of SNS-032-Atto590 probe (0.002 μM) from CDK11A-p58 (0.032 uM), fluorescence polarization.
Procedure: Biochemical Kinase Inhibition Assay on CDK11 in Displacement Assay Format
Displacement Assay Format
Fluorescence Polarization (FP) experiments were carried out at room temperature using no-binding black 384-well microplates (Corning, NY), in 50 mM Tris HCl, pH 8, 10 mM MgCl2, 1 mM DTT, 1 mM CHAPS in a final volume of 60 μl. The plate reader was the Pherastar microplate reader (BMG). Polarization values were read using excitation and emission wavelengths of 590 and 675 nm, respectively. All FP values are expressed as mP units.
Compounds were 4-folds serially diluted in 100% DMSO and added directly to the CDK11A-p58 solution using the pin tool (V & P Scientific): 0.2 ul of the different compound concentrations in 20 ul of enzyme solution. After an incubation of 30 minutes at r.t., 40 ul of probe solution were added. […] The Pherastar reading is performed after 15 minutes of all components incubation. For each assay, high controls (equivalent to 0% displacement) contain probe, CDK11A-p58, and 0.33% DMSO, whereas low controls (equivalent to 100% displacement) contain only probe and 0.33% DMSO. Controls are used for the Z′ and signal to background evaluation.
The data per each molecule are analyzed by Prism SW or an internally customized version of the SW package “Assay Explorer” which provides sigmoidal fittings of the ten-dilution curves for DC50 determination using a 4 parameters logistic equation:
where x is the logarithm of the inhibitor concentration, y is the response; y starts at bottom and goes to top with a sigmoid shape.
As to `N#Cc1ccc(Cl)c(-c2ccc3[nH]nc(NC(=O)[C@H]4CCC5(CCCC5)NC4)c3c2)c1` (single isomer, unassigned) [compound 205, (8-)-N-[5-(2-Chloro-5-cyanophenyl)-1H-indazol-3-yl]-6-azaspiro[4.5]decane-8-carboxamide hydrochloride], the DC50 amounted to 278 nM. `N#Cc1ccc(Cl)c(-c2ccc3[nH]nc(NC(=O)[C@@H]4CCC5(CCCCC5)NC4)c3c2)c1` (single isomer, unassigned) [compound 207, (3-)-N-[5-(2-Chloro-5-cyanophenyl)-1H-indazol-3-yl]-1-azaspiro[5.5]undecane-3-carboxamide] registered a DC50 of 229 nM. Regarding `CC(C)(C)COC(=O)n1nc(NC(=O)[C@@H]2CCC(C)(C)NC2)c2cc(-c3cc(C#N)ccc3Cl)ccc21` (single isomer, unassigned) [cpd 224, 2,2-Dimethylpropyl 5-(2-chloro-5-cyanophenyl)-3-({[(3+)-6,6-dimethylpiperidin-3-yl]carbonyl}amino)-1H-indazole-1-carboxylate hydrochloride], the DC50 is 528 nM.

Compound `CC(C)OC(=O)n1nc(NC(=O)[C@@H]2CCC(C)(C)NC2)c2cc(-c3cc(C#N)ccc3Cl)ccc21` (single isomer, unassigned) [cpd 226, hydrochloride] yielded a DC50 of 1010 nM. In the case of `CN1CCC(C(=O)Nc2n[nH]c3ccc(-c4c(F)cc(F)cc4F)cc23)CC1` [compound 123, 1-Methyl-N-[5-(2,4,6-trifluorophenyl)-1H-indazol-3-yl]piperidine-4-carboxamide hydrochloride] it was 665 nM; in that of `CN1CCC(C(=O)Nc2n[nH]c3ccc(-c4ccc(F)cc4F)cc23)CC1` [compound 124, N-[5-(2,4-Difluorophenyl)-1H-indazol-3-yl]-1-methylpiperidine-4-carboxamide hydrochloride], 637 nM; in that of `CN1CCC(C(=O)Nc2n[nH]c3ccc(-c4cc(F)c(F)cc4F)cc23)CC1` [compound 126, 1-Methyl-N-[5-(2,4,5-trifluorophenyl)-1H-indazol-3-yl]piperidine-4-carboxamide hydrochloride], 913 nM. As for `CN1CCC(C(=O)Nc2n[nH]c3ccc(-c4ccc(F)c(F)c4F)cc23)CC1` [compound 128, 1-Methyl-N-[5-(2,3,4-trifluorophenyl)-1H-indazol-3-yl]piperidine-4-carboxamide hydrochloride], the DC50 amounted to 468 nM. Turning to `COc1c(F)cc(F)c(-c2ccc3[nH]nc(NC(=O)C4CCN(C)CC4)c3c2)c1F` [compound 131, 1-Methyl-N-[5-(2,4,6-trifluoro-3-methoxyphenyl)-1H-indazol-3-yl]piperidine-4-carboxamide hydrochloride], the DC50 is 438 nM. In the case of `Cc1ccc(-c2ccc3[nH]nc(NC(=O)C4CCN(C)CC4)c3c2)c(F)c1F` [compound 132, N-[5-(2,3-Difluoro-4-methylphenyl)-1H-indazol-3-yl]-1-methylpiperidine-4-carboxamide hydrochloride] it was 409 nM; in that of `CN1CCC(C(=O)Nc2n[nH]c3ccc(-c4c(F)ccc(C#N)c4F)cc23)CC1` [compound 134, N-[5-(3-Cyano-2,6-difluorophenyl)-1H-indazol-3-yl]-1-methylpiperidine-4-carboxamide], 125 nM; in that of `CN1CCC(C(=O)Nc2n[nH]c3ccc(-c4ccc(O)c(C#N)c4)cc23)CC1` [compound 135, N-[5-(3-Cyano-4-hydroxyphenyl)-1H-indazol-3-yl]-1-methylpiperidine-4-carboxamide hydrochloride], 786 nM. Compound `CN1CCC(C(=O)Nc2n[nH]c3ccc(-c4cc(F)ccc4C#N)cc23)CC1` [compound 136, N-[5-(2-Cyano-5-fluorophenyl)-1H-indazol-3-yl]-1-methylpiperidine-4-carboxamide hydrochloride] had a DC50 of 486 nM. Then `CN1CCC(C(=O)Nc2n[nH]c3ccc(-c4cc([N+](=O)[O-])ccc4Cl)cc23)CC1` [compound 137, N-[5-(2-Chloro-5-nitrophenyl)-1H-indazol-3-yl]-1-methylpiperidine-4-carboxamide trifluoroacetate], with 70 nM; and `CN1CCC(C(=O)Nc2n[nH]c3ccc(-c4c(F)cc(O)cc4F)cc23)CC1` [compound 138, N-[5-(2,6-Difluoro-4-hydroxyphenyl)-1H-indazol-3-yl]-1-methylpiperidine-4-carboxamide trifluoroacetate], with 376 nM. Consider `CCCCN1CCC(C(=O)Nc2n[nH]c3ccc(-c4cc(C#N)ccc4Cl)cc23)CC1` [compound 140, 1-Butyl-N-[5-(2-chloro-5-cyanophenyl)-1H-indazol-3-yl]piperidine-4-carboxamide hydrochloride], for which the DC50 is 68 nM. Then `CCCN1CCC(C(=O)Nc2n[nH]c3ccc(-c4cc(C#N)ccc4Cl)cc23)CC1` [compound 141, N-[5-(2-Chloro-5-cyanophenyl)-1H-indazol-3-yl]-1-propylpiperidine-4-carboxamide hydrochloride], with 79 nM. In the case of `CCCCCN1CCC(C(=O)Nc2n[nH]c3ccc(-c4cc(C#N)ccc4Cl)cc23)CC1` [compound 142, N-[5-(2-Chloro-5-cyanophenyl)-1H-indazol-3-yl]-1-pentylpiperidine-4-carboxamide hydrochloride] it was 95 nM; in that of `CC(C)N1CCC(C(=O)Nc2n[nH]c3ccc(-c4cc(C#N)ccc4Cl)cc23)CC1` [compound 143, N-[5-(2-Chloro-5-cyanophenyl)-1H-indazol-3-yl]-1-(propan-2-yl)piperidine-4-carboxamide hydrochloride], 89 nM; in that of `CNC1CCC(C(=O)Nc2n[nH]c3ccc(-c4c(Cl)cccc4Cl)cc23)CC1` (centres unmarked) [compound 144, N-[5-(2,6-Dichlorophenyl)-1H-indazol-3-yl]-4-(methylamino)cyclohexanecarboxamide hydrochloride], 110 nM. On to `CNC1CC(C(=O)Nc2n[nH]c3ccc(-c4cc(C#N)ccc4Cl)cc23)C1` (centres unmarked) [compound 146, N-[5-(2-Chloro-5-cyanophenyl)-1H-indazol-3-yl]-3-(methylamino)cyclobutanecarboxamide hydrochloride], for which the DC50 came to 23 nM.

In turn, `CN(C)C1CC(C(=O)Nc2n[nH]c3ccc(-c4cc(C#N)ccc4Cl)cc23)C1` (centres unmarked) [compound 147, N-[5-(2-Chloro-5-cyanophenyl)-1H-indazol-3-yl]-3-(dimethylamino)cyclobutanecarboxamide hydrochloride] yielded a DC50 of 108 nM. Then `CC(C)NC1CC(C(=O)Nc2n[nH]c3ccc(-c4cc(C#N)ccc4Cl)cc23)C1` (centres unmarked) [compound 148, N-[5-(2-Chloro-5-cyanophenyl)-1H-indazol-3-yl]-3-(propan-2-ylamino)cyclobutanecarboxamide hydrochloride], with 20 nM. In the case of `N#Cc1ccc(Cl)c(-c2ccc3[nH]nc(NC(=O)C4CC(NC5CCC5)C4)c3c2)c1` (centres unmarked) [compound 153, N-[5-(2-Chloro-5-cyanophenyl)-1H-indazol-3-yl]-3-(cyclobutylamino)cyclobutanecarboxamide hydrochloride] it was 41 nM; in that of `N#Cc1ccc(Cl)c(-c2ccc3[nH]nc(NC(=O)C4CC(NC5CCCC5)C4)c3c2)c1` (centres unmarked) [compound 154, N-[5-(2-Chloro-5-cyanophenyl)-1H-indazol-3-yl]-3-(cyclopentylamino)cyclobutanecarboxamide hydrochloride], 40 nM; in that of `N#Cc1ccc(Cl)c(-c2ccc3[nH]nc(NC(=O)C4CC(NC5CC5)C4)c3c2)c1` (centres unmarked) [compound 155, N-[5-(2-Chloro-5-cyanophenyl)-1H-indazol-3-yl]-3-(cyclopropylamino)cyclobutanecarboxamide hydrochloride], 53 nM. Turning to `O=C(Nc1n[nH]c2ccc(-c3c(Cl)cccc3Cl)cc12)C1CCN(C2CC2)CC1` [compound 158, 1-Cyclopropyl-N-[5-(2,6-dichlorophenyl)-1H-indazol-3-yl]piperidine-4-carboxamide hydrochloride], the DC50 came to 695 nM. Regarding `O=C(Nc1n[nH]c2ccc(-c3c(Cl)cccc3Cl)cc12)C12CCN(CC1)CC2` [compound 160, N-[5-(2,6-Dichlorophenyl)-1H-indazol-3-yl]-1-azabicyclo[2.2.2]octane-4-carboxamide], the DC50 amounted to 221 nM. In the case of `O=C(C[C@@H]1CCCN1)Nc1n[nH]c2ccc(-c3c(Cl)cccc3Cl)cc12` [compound 162, N-[5-(2,6-Dichlorophenyl)-1H-indazol-3-yl]-2-[(2S)-pyrrolidin-2-yl]acetamide hydrochloride] it was 792 nM. In the case of `O=C(CC1CCNCC1)Nc1n[nH]c2ccc(-c3c(Cl)cccc3Cl)cc12` [compound 163, N-[5-(2,6-Dichlorophenyl)-1H-indazol-3-yl]-2-(piperidin-4-yl)acetamide hydrochloride] it was 576 nM; in that of `NC[C@H]1CC[C@H](C(=O)Nc2n[nH]c3ccc(-c4c(Cl)cccc4Cl)cc23)CC1` [compound 164, trans-4-(Aminomethyl)-N-[5-(2,6-dichlorophenyl)-1H-indazol-3-yl]cyclohexanecarboxamide hydrochloride], 151 nM. `CN(C)C1CCC(C(=O)Nc2n[nH]c3ccc(-c4c(Cl)cccc4Cl)cc23)CC1` (centres unmarked) [compound 166, N-[5-(2,6-Dichlorophenyl)-1H-indazol-3-yl]-4-(dimethylamino)cyclohexanecarboxamide hydrochloride] returned a DC50 of 133 nM.
